Publication PMC6452685, “Lysyl-tRNA synthetase as a drug target in malaria and cryptosporidiosis” (Proceedings of the National Academy of Sciences of the …, 2019)

How the values were obtained:
[1] = biological target: T1, CYP2D6 (Homo sapiens, UniProt P10635); experiment: Fluorescence-based CYP inhibition, CYP2D6; assay type: in vitro ADME
T1 construct: purchased Cypex, Dundee, UK; host or cells: bacterial membranes (bactosomes)
Experimental: 4.7 F lu or e s ce nce-based CYP I nhibition usin g recombinantly expressed CYP b actosomes Fl uorogeni c C YP i nhi bi t i on s t udi es w ere c ondu ct ed at 37 °C i n 96-well, flat-bot t om, cl ear p ol y s t y rene pl at es. I ncubat i on mi xt ures cont ai ni ng Eas y C YP bact os omes (1000 pmol /ml , 10 mg /ml C y pex TM, Dundee, UK), fl uorogeni c substrate (Cypex TM) and 50 mM potas s i um phosphat e buffer (p H 7. 4) w er e prepared at t he fol l ow i ng fi nal concent rat i ons : C YP1A2, 5 pmol /ml + 35 µ M et hox y res orufi n (ER) ; CYP2C9, 10 pm ol/ml + 30 µM 7-methoxy-4-(tri fl uo romethy l )-coumari n (MFC ); C YP 2C 19, 5 pm ol /ml + 25 µM 3-cy ano-7-eth oxycoumarin (CEC); C YP 2D 6, 10 pmol /ml + 6 µM 7-meth oxy-4-(ami nomethy l )- coumari n (MAMC ); C YP 3A4, 10 pmol /ml + 1 µM diethoxyfluorescein (DEF) and 10 pmol /ml + 15 µM 7-benz y l ox y qui nol i ne (BQ ). […] 0125 ( 1A2 and 2C 9 onl y ) o r 0. 025 mg /ml (al l ot her i s oforms ). […] Positive control inhibitor, miconazole, was prepared as a 500 µM s olution in DMSO and similarly diluted.
For eac h i sofo rm, 2 20 µl of i ncubati on mi x was added to each wel l of a 96-well, flat-bot t om, cl ear pol y s t y rene pl at e. Al i quot s (5 µl) of each compound 5 conce ntrati on was then mi x ed wi th 220 µl of the incubation mix and pre-incubated at 37 °C for 5 min (final test compound concentration range: […]

[2] = test system: Pf(TM90C2B); experiment: Drug resistant P. falciparum TM90C2B, [3H]-hypoxanthine incorporation; assay type: cell-based; conditions: Plasmodium falciparum, atovaquone-resistant
Description: (§1) 3.2 Cytotoxicity Studies (Dundee)
(§2) In vi t ro cy totox i ci ty s tudies can be ca rri ed out us i ng Hep G 2 (Human C aucas i an hepatocy te ca rci noma, ECACC cat. no. 850 114 30) us ed as i ndi cators f or g eneral mammal i an cel l tox i ci ty . […]
(§3) 3.3 In vitro Cell Assay D ata Analysis (Du ndee) […]
(§4) as 0%. Qual i ty control c ri teri a for passi ng pl ates were as fol l ow s : Z’ > 0.
(§5) < 15 . T he f ormula used to calculate Z’ is 1- 3´ (St D e v _ hi gh + St D e v_ low) . […]
(§6) Al l EC50 Curve fitti ng was undertaken usi ng XLFi t versi on 4.2 usi ng Model 205 wi th the foll owi ng 4 paramet ri c equat i on: A + (?-A) ,where A=% i nhi bi ti on at bo ttom, B=% i nhi bi ti on at top, C= EC , […]
(§7) D= slope, x= inhibitor concentration a nd y= % inhibition. […]
(§8) was fixed to 100 only when at least 50% of inhibition was reached. […]
(§9) Hoffmann-La Ro che Ltd) a nd resi stant strai ns K1 and TM90C2B (fr om the Malaria Research an d Reference Reag ent Res ou rce C enter, accu rate d es cri pti ons of the g eneti c backg roun ds of thes e strains can be obtained at http://www.beiresources.org) were cultivated in a variation of the medium prev i ous l y des cri bed (5, 6), c onsi sti ng of RPMI 16 40 su ppl emented wi th 0.5% ALBUMAX® II, 25 m M Hepes , 25 mM NaHC O3 (pH 7. […] The re s ul t s were recorded and expressed as a percentage of the untreated controls. […]

[3] = test system: C. parvum Iowa strain; experiment: In vitro inhibition of Cryptosporidium, C. parvum Iowa in HCT-8 cells (imaging); assay type: cell-based; conditions: HCT-8, read-out: C. parvum Iowa strain EC50
[4] = test system: Pf(NF54); experiment: Drug-sensitive P. falciparum NF54, [3H]-hypoxanthine incorporation; assay type: cell-based; conditions: Plasmodium falciparum, drug-sensitive strain
Description: as §1, §2, §3, §4, §5, §6, §7, §8, §9

[5] = test system: 44 receptor/enzyme panel; experiment: Preliminary selectivity study in a 44 receptor/enzyme panel; conditions: at a concentration of 10 μM

T1 sequence (P10635 whole entry): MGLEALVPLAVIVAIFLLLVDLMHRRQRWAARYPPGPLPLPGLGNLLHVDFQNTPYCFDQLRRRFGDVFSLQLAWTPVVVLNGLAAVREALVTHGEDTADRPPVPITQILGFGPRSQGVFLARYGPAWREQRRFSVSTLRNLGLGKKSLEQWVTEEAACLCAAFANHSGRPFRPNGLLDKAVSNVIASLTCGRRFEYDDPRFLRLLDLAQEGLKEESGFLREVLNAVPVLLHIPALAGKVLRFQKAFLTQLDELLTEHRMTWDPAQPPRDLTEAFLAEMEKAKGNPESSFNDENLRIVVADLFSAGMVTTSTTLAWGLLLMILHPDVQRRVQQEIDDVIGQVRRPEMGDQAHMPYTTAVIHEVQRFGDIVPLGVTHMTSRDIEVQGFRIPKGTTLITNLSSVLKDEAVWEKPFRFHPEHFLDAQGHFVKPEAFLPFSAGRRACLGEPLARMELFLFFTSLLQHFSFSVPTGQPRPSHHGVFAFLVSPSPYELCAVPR

## O=C(NCC1(O)CCC(F)(F)CC1)c1cc(=O)c2cc(F)ccc2o1 [Compound 5]
[1]
  IC50: > 10000 nM
[2]
  EC50: 520 nM
[3]
  EC50: 1300 nM
[4]
  EC50: 390 nM
[5]
  activity in 44 receptor/enzyme panel: no activity
